{"source": "patent US20230159954A1", "about": "“Apparatus for Improved Transfection and / or intracellular delivery efficiency of an Agent into a Eukaryotic Cell and / or Protein Expression and Method of Use Thereof” (St Andrews Pharmaceutical Technology Ltd., priority 2020, published 2023)", "test_system": "Human Colon Tumour (HCT) 116 cells", "experiment": "Western Blot of p53 isoforms after doxorubicin treatment with or without pulsed technology", "type": "cell-based", "settings": "for uptake / intra-cellular delivery of doxorubicin from the media: concluded from upregulation of p53 isoforms", "protocol": "Human Colon Tumour (HCT) 116 cells (adherent cells) (ATCC, USA-ATCC® CCL-247™) were seeded at a density of 3×10^5 cells per well in two CELLSTAR® 6-well plates (9.6 cm^2) in a final volume of 5 mL Dulbecco's Modified Eagle Medium (DMEM) (Thermo Fisher, USA)+10% Fetal Bovine Serum (FBS) (Hyclone, USA) 24 hours before treatment.\nThe naked agent used was Doxorubicin (0.25 μM) (Sigma Aldrich) in absolute ethanol and was given to the cells for a 1 hour treatment period and incubated at 37° C., at 5% CO^2.\nAfter treatment the media was removed and fresh media was added to the cells. One of the plates was incubated directly at 37° C., at 5% CO^2 and the second plate was placed in a different incubator and pulsed using the pulsed technology of the present invention at 37° C., at 5% CO^2.\nProtein extracts were collected at 3 hours, 6 hours, 9 hours, 16 hours or 24 hours of treatment for analysis by SDS-page.\n1. For protein extraction the cells were washed twice with ice-cold PBS and then lysed in NP-40 extraction buffer (50 mM Tris pH 7.5; 10% glycerol; 0.1% “NP-40 Alternative” (Merck Millpore, USA); 100 mM NaCl; 0.2 mM EDTA) supplemented with 1× Complete™ Protease Inhibitor Cocktail (Roche, Switzerland). Extracts were sonicated (20 seconds, 20% amplitude) and protein concentration was determined using BCA™ Protein Assay Kit (ThermoFisher Scientific, USA) according to the manufacturer's recommendations.\n1. Protein extracts (15/20 μg depending on the experiment) were supplemented with 0.1M dithiothreitol (DTT) and 1×LDS buffer (Invitrogen, USA) and were heated at 95° C. for 10 min before loading on NuPAGE 10% Bis-Tris polyacrylamide gels (Invitrogen, USA).\n2. Protein samples were separated by electrophoresis (100V) using 1×MOPS Running Buffer. Transfer of proteins was performed at 12V overnight onto a nitrocellulose membrane (Protran 0.1 μm from GE Healthcare, USA) in 1× Transfer Buffer supplemented with 20% methanol. 1× Transfer Buffer is prepared from 10× Wet blot solution containing 144 g of glycine and 30 g Tris-Base in a final volume of 1 L milli-Q water.\n3. Membranes were blocked for 30 min in 5% BSA diluted in PBS-0.1% Tween20 before being incubated overnight with a primary antibody (Mouse monoclonal antibody DO1). After a wash of 15 min in PBS-Tween20, membranes were incubated for 1 h with a corresponding secondary antibody (HRP conjugated Donkey anti Mouse). All secondary antibodies, conjugated with Horse Radish Peroxidase (HRP), were purchased from Jackson ImmunoResearch lab and used at 1:10000/1:15000 dilution (depending on the antibody) in 5% BSA-PBS-Tween20.\nAt the end of the incubation membranes were washed twice with PBS-Tween20 for 15 min followed by a final 10 min wash with PBS. The chemiluminescence signal was detected on Hyperfilm™ ECL (Cytiva, USA) using the Amersham ECL Western Blotting Detection System (Cytiva, USA).", "note": "Entries after “also recorded” stand apart in the source; their conditions may differ.", "data": [{"smiles": "COc1cccc2c1C(=O)c1c(O)c3c(c(O)c1C2=O)C[C@@](O)(C(=O)CO)C[C@@H]3O[C@H]1C[C@H](N)[C@H](O)[C@H](C)O1", "note": "[Doxorubicin]", "values": [{"measurement": "p53alpha expression (Western Blot, FIG. 8)", "setting": "0.25 μM doxorubicin for 1 hour, pulsed technology vs control, after 16 hours", "value": "significant overproduction of p53alpha compared to the control"}, {"measurement": "Other isoforms of p53 (d133p53alpha, d133p53beta, d160p53beta) expression (Western Blot, FIG. 7)", "setting": "Doxorubicin 0.25 μM for 1 hour, pulsed technology vs control", "value": "more upregulated"}, {"measurement": "p53alpha expression (Western Blot, FIG. 7)", "setting": "Doxorubicin 0.25 μM for 1 hour, pulsed technology vs control, seen from 3 hours, most evident 24 hours post-treatment", "value": "upregulated"}, {"measurement": "γH2AX expression (ionising radiation marker, Western Blot)", "setting": "doxorubicin, pulsed technology arm vs control arm", "value": "no observed change; also recorded: remained unchanged"}, {"measurement": "uptake / intra-cellular delivery of doxorubicin from the media", "setting": "pulsed technology vs control", "value": "significantly improved"}, {"measurement": "uptake / intra-cellular delivery of doxorubicin from the media", "setting": "pulsed technology vs control, listed as doxorubicin", "value": "increases the ability of the cells to uptake doxorubicin"}]}]}
